In US6380167B1, “Methods for anti-tumor therapy” (priority 1999, dated 2002):
“Also recorded” adds a separate entry of the source. Where two headings read alike, the source gives them in different places.

Experiments:
[1] = tested on: patient tumor cells; test: Comparison of cardiac glycosides in the anti-tumor assays; assay type: cell-based, human; conditions: cardiac glycosides tested
Method: Alamer Blue (Accumed International, Westlake Ohio) was then added to the cells at 1/10 the volume of the well, and the cells were further incubated at 37° C. for various times. Alamer Blue dye measures cellular re-dox reactions (ie: cellular respiration) whereby a spectral shift occurs upon reduction of the dye. (Excitation 530 nm; emission 590 nm)
The kinetics of cellular re-dox reactions were subsequently measured at various times, for example at 3 hours, 3 days, and 5 days post-dye addition.

[2] = tested on: cells isolated from sarcoma patients; test: Alamer Blue cellular respiration assay on cells isolated from sarcoma patients; assay type: cell-based; conditions: Homo sapiens
Source text: (§1) Excess tissue specimens obtained from a variety of organs and tissues such as colon, lung, kidney, stomach, and buttocks were obtained freshly at the time of surgery and samples were sent for pathological testing. For diagnosis and grading of tissue samples (ie: prior to processing), hematoxylin and eosin stained tissue sections were examined by a pathologist. If the diagnosis and grading of the tissue concurred with the determination made by the surgical pathologist that provided the tissue, then the tissue was used in the screen. If there was no agreement, then two additional pathologists served as referees. If no consensus was reached, then the tissue was discarded. […]
(§2) After tissue processing, the relative purity of the resulting cell suspension was determined by cytological examination after pap staining. […]
(§3) Cell preparations that passed histological and cytological examination for diagnosis, grading, and cell purity were thawed at 37° C. and resuspended in tissue culture medium designed to maintain the cells during the incubation period. The live and dead cells were counted and the cells were diluted in culture medium to 4.0×10^4 live cells/ml for tumor cells and 1.32×10^5 live cells/ml for normal cells. […]
(§4) The kinetics of cellular re-dox reactions were subsequently measured at various times, for example at 3 hours, 3 days, and 5 days post-dye addition. […]

[3] = tested on: cells derived from ovarian tumor tissue; test: Alamer Blue cellular respiration assay on cells derived from ovarian tumor tissue; assay type: cell-based; conditions: Homo sapiens
Source text: as §1, §2, §3, §4

[4] = toxic at concentrations above; cited from earlier work
[5] = in vivo; cited from earlier work
[6] = range over samples, read-out: IC50 (range)

SMILES | activity in the assays compared with digitoxin [1] | IC50 ([2]; mean, read-out: IC50 (mean)) | IC50 [2, 6] | IC50 ([3]; mean, read-out: IC50 (mean)) | IC50 [3, 6] | toxic concentration [4] | bound to plasma proteins [5]
C[C@H]1O[C@@H](O[C@H]2[C@@H](O)C[C@H](O[C@H]3[C@@H](O)C[C@H](O[C@H]4CC[C@@]5(C)[C@H](CC[C@@H]6[C@@H]5C[C@@H](O)[C@]5(C)[C@@H](C7=CC(=O)OC7)CC[C@]65O)C4)O[C@@H]3C)O[C@@H]2C)C[C@H](O)[C@@H]1O [digoxin] | Digitoxin appeared more active in the assays then digoxin | – | – | – | – | – | –
C[C@@H]1O[C@@H](O[C@H]2C[C@@H](O)[C@]3(CO)[C@H]4[C@H](O)C[C@]5(C)[C@@H](C6=CC(=O)OC6)CC[C@]5(O)[C@@H]4CC[C@]3(O)C2)[C@H](O)[C@H](O)[C@H]1O [oubain] | equally active | – | – | – | – | – | –
CC1OC(OC2C(O)CC(O[C@H]3CC[C@]4(C)C5CC[C@]6(C)[C@@H](C7=CC(=O)OC7)CC[C@]6(O)[C@@H]5CC[C@@H]4C3)O[C@@H]2C)C[C@H](O)[C@@H]1OC1CC(O)C(O)[C@@H](C)O1 (some centres unmarked) [digitoxin] | – | 25 nM | 13 to 48 nM | 47 nM | 31 to 126 nM | above 35 ng/ml; also recorded: approximately 46 nM | greater than 95%
